The results in this text go back to patent US12473295B2, “Substituted straight chain spiro derivatives” (Janssen Pharmaceutica NV, priority 2019, dated 2025).

A short description of data set [1]: Metabolic stability in mouse liver microsomes. The conditions noted are these: mouse liver microsomes 0.5 mg/mL, 1 μM test compound, pH 7.4; for microsomal CLint at 1 μM: read-out: Mouse LM Clint. Format: in vitro ADME. As to the method: (§1) 4) Metabolic Stability in Human/Mouse Liver Microsomes
(§2) The objective of this study is to measure in vitro metabolic stability of test compound(s) in human and mouse liver microsomes and provide quantitative information on the rate of metabolic turnover (i.e. determination of the apparent intrinsic clearance of test).
(§3) Test items were prepared at a stock concentration of 10 mM in DMSO. For determination of metabolic turnover, a final working solution was prepared by adding 2 μL of 10 mM DMSO stock solution for test compound or positive control compounds to 198 μL of acetonitrile (100 μM final concentration).
(§4) Incubations were performed as follows: First, liver microsomes were thawed on ice and a master solution containing liver microsomes in 100 mM PBS (phosphate-buffered saline) at pH 7.4 is prepared. Next, the liver microsomes solution was added to the incubation plates and 10 mM NADPH (Nicotinamide-adenine dinucleotide phosphate) was added (MW: 833.4 g/mol; Roche Diagnostics GmbH, Germany. Dissolved in phosphate buffer (100 mmol/L, pH 7.4)). The mixture was mixed for 10 seconds and pre-warmed in the incubation plate at 37° C. for 10 minutes. The metabolic reaction was initiated with the addition of 5 μL of the 100 μM working solution for test compound or positive control compounds to incubation plate (final test item concentration=1 μM). The reaction final mixture should contain 1 mM NADPH, 0.5 mg/mL microsomes protein and 1 μM test compound or positive control compound in 100 mM PBS at pH 7.4. The percentage of organic solvent in incubation mixture is 1% with DMSO ≤0.02%.
(§5) The reaction was quenched by transferring 50 μL of the incubated mixture at selected time points into the quenching plate containing 200 μL of cold methanol. After sampling of all the timepoints the quenching plate was centrifuged at 4000 rpm for 40 minutes to precipitate protein. A total of 90 μL of the supernatant was transferred to an analysis plate and ultra-pure H2O water is added into each well for LC/MS/MS analysis. All incubations and analysis were performed in duplicate.
(§6) All calculations were carried out using Microsoft Excel. The slope value, k, was determined by linear regression of the natural logarithm of the remaining percentage of the parent drug vs. incubation time curve.
(§7) The in vitro half-life (in vitro tin) was determined from the slope value: in vitro t1/2=−(0.693/k)
(§8) Conversion of the in vitro tin (in min) into the in vitro intrinsic clearance (in vitro CLint, in μL/min/mg proteins) was done using the following equation: […]
A general note: Liver microsomes are a subcellular fraction often used to study metabolism.

A further data set relates to KO-52 cells. The experiment in a line: Proliferation assay (spheroid growth, 8 days), KO-52 control cell line. The conditions noted are these: read-out: spheroid assay_OneTime KO-52 IC50. The class given is cell-based, human. The method in brief: (§9)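 200 MOLM14 (MLL-AF9), 200 OCI-AML3 (NPM1c) or 300 KO-52 (MLL wildtype) cells were grown as spheroids in ultra-low attachment wells with compound, 0.3% DMSO, for 8 days at 37 °C. Confluence was imaged on day 8, normalized to DMSO and top-dose reference compound. IC50 came from a variable-slope fit constrained 0–100%.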

For another data set, the system named is MOLM14 cells. The data set is described as follows: Proliferation assay (spheroid growth, 8 days), MOLM14.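 Further: spheroid size read as confluence by live-cell imaging, compounds added at a range of concentrations with 0.3% DMSO, DMSO-treated wells = 0%, highest reference dose = low control.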 The class given is cell-based, human. Particulars: MOLM14, 8 days, read-out: spheroid assay_OneTime MOLM14 IC50.
The target in another data set is hERG potassium channel (Homo sapiens (Human), UniProt Q12809). The data set is described as follows: Effect on membrane potassium current IKr in hERG transfected CHO cells, Protocol 1 (QPatch). The class given is cell-based. As to the method:
8) Effect on the Membrane Potassium Current IKr in hERG Transfected Cell Lines
• CHO Chinese hamster ovary cell line • DMSO Dimethylsulfoxide • hERG human ether-á-go-go-related gene • IKr rapidly activating delayed-rectifier K^+ current Methods
Experiments were performed using CHO cells stably expressing the hERG potassium channel. Cells were grown at 37° C. and 5% CO2 in culture flasks in Ham's F12 Medium supplemented with 10% heat-inactivated fetal calf serum, hygromycin B (100 μg/ml) and geneticin (100 μg/ml). For use in the automated patch-clamp system QPatch (Sophion) cells were harvested to obtain cell suspension of single cells.
Solutions: The bath solution contained (in mM) 145 NaCl, 4 KCl, 10 glucose, 10 HEPES ((4-(2-hydroxyethyl)-1-piperazineethanesulfonic acid), 2 CaCl2 and 1 MgCl2 (pH 7.4 with NaOH). The pipette solution contained (in mM) 120 KCl, 10 EGTA (Ethylene glycol-bis(2-aminoethylether)-N,N,N′,N′-tetraacetic acid), 10 HEPES, 5.374 CaCl2 and 1.75 MgCl2 (pH 7.2 with KOH).
Patch-clamp experiments were performed in the voltage-clamp mode and whole-cell currents were recorded with an automated patch-clamp assay utilizing the QPatch system (Sophion). Current signals were amplified and digitized, stored and analyzed by using the QPatch assay software.
The holding potential was −80 mV. The hERG current (K^+-selective outward current) was determined as the maximal tail current at −40 mV after a 2 second depolarization to +60 mV. Pulse cycling rate was 15 s. A short pulse (90 ms) to −40 mV served as a baseline step to calculate the tail current amplitude. After establishing whole-cell configuration and a stability period, the solvent control (0.3% DMSO) was applied for 5 minutes followed by the test substance by four increasing concentrations of 3×10^−7 M, 3×10^−6 M, 10^−5 M and 3×10^−5 M. Each concentration of the test substance was applied twice. The effect of each concentration was determined after 5 min as an average current of 3 sequential voltage pulses. To determine the extent of block the residual current was compared with vehicle pre-treatment.
Concentration/response relations were calculated by non-linear least-squares fits to the individual data points. The half-maximal inhibiting concentration (IC50) was calculated by the fitting routine.
In general terms: hERG is a cardiac potassium channel; its block is linked to QT prolongation.

Data set [2] in a line: Metabolic stability in human liver microsomes. The class given is in vitro ADME. The conditions noted are these: human liver microsomes 0.5 mg/mL, 1 μM test compound, pH 7.4; for microsomal CLint at 1 μM: read-out: Human LM Clint. As to the method: as §1, §2, §3, §4, §5, §6, §7, §8
In a further data set the test system is MEIS1 mRNA. The experiment in a line: MEIS1 mRNA expression assay (Quantigene Singleplex) in MOLM14 cells.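 Further: MEIS1 transcript levels read by probe hybridization and normalized to RPL28 mRNA, with IC50 fitted to fold changes across a rising compound concentration series.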 Format: cell-based, human. Particulars: 48 hours incubation.
The next data set relates to OCI-AML3 cells. The data set is described as follows: Proliferation assay (spheroid growth, 8 days), OCI-AML3. The class given is cell-based, human. The conditions noted are these: OCI-AML3, 8 days. In outline:
as §9

Data set [3] deals with menin/MLL (terbium chelate-labeled menin, FITC-MBM1 peptide) (Homo sapiens (Human), UniProt O00255). The data set is described as follows: Menin/MLL homogenous time-resolved fluorescence (HTRF) assay.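 Further: IC50 from percent inhibition of HTRF signal, normalized between wells without competitor and wells with a saturating competitor that displaces FITC-MBM1 from His-tagged menin.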 Format: binding. On the technique in general: In TR-FRET formats the signal depends on donor and acceptor labels being close together.
Sequence of menin/MLL (terbium chelate-labeled menin, FITC-MBM1 peptide) (O00255 other isoform, or with tags, fused parts or gaps): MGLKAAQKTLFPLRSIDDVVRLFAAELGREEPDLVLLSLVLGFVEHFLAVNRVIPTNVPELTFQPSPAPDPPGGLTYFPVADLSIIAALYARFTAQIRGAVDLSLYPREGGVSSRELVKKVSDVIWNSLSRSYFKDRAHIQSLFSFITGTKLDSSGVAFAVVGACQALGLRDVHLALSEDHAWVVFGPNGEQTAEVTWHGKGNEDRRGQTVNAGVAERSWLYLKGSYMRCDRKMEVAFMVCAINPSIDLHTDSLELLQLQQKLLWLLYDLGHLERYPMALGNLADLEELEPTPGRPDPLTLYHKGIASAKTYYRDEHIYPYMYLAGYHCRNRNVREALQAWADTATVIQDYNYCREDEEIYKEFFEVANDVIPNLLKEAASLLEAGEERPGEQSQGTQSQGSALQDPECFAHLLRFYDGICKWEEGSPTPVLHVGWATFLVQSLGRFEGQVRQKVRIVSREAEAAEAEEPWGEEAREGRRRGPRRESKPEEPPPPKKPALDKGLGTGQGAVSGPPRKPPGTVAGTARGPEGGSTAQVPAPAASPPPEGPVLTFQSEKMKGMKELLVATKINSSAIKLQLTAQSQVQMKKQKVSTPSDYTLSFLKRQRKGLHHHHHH
The nature of data set [4]: Mouse PK (in vivo T1/2 and oral bioavailability). Particulars: fasted male CD-1 mice, formulating agent HP-β-CD. As to the method: 3) Mouse PK (In Vivo T1/2 and Oral Bioavailability)
In vivo pharmacokinetics (PK) were assessed in fasted male CD-1 mice (age 6-8 weeks) following a single intravenous (IV, 0.5 or 1.0 mg/kg administered at 2.5 ml/kg) or oral (PO, 5 mg/kg administered at 10 ml solution/kg) dose of test article formulated in a 20% (w:vol) HP-β-CD solution or in Pyrogen free water.
Plasma and/or whole blood samples were collected from the dorsal metatarsal vein at desired timepoints via serial capillary microsampling (approx. 0.03 mL) using EDTA as an anticoagulant. Concentrations of compound in the plasma and blood samples were analyzed using a qualified LC-MS/MS method. In silico analysis of main pharmacokinetic parameters was performed using WinNonlin (Phoenix™, version 6.1) or similar software. (Results see Table 4)

Setting [5] is: read-out: HTRF-30 min incubation IC50, 30 min incubation.
Where [6] appears, read: HTRF-30 min incubation IC50, 30 min incubation.

Counter-ions that a name gives are not always drawn. Like-named read-outs stand apart in the source and are kept apart here.

Sequence of hERG potassium channel (Q12809 whole entry): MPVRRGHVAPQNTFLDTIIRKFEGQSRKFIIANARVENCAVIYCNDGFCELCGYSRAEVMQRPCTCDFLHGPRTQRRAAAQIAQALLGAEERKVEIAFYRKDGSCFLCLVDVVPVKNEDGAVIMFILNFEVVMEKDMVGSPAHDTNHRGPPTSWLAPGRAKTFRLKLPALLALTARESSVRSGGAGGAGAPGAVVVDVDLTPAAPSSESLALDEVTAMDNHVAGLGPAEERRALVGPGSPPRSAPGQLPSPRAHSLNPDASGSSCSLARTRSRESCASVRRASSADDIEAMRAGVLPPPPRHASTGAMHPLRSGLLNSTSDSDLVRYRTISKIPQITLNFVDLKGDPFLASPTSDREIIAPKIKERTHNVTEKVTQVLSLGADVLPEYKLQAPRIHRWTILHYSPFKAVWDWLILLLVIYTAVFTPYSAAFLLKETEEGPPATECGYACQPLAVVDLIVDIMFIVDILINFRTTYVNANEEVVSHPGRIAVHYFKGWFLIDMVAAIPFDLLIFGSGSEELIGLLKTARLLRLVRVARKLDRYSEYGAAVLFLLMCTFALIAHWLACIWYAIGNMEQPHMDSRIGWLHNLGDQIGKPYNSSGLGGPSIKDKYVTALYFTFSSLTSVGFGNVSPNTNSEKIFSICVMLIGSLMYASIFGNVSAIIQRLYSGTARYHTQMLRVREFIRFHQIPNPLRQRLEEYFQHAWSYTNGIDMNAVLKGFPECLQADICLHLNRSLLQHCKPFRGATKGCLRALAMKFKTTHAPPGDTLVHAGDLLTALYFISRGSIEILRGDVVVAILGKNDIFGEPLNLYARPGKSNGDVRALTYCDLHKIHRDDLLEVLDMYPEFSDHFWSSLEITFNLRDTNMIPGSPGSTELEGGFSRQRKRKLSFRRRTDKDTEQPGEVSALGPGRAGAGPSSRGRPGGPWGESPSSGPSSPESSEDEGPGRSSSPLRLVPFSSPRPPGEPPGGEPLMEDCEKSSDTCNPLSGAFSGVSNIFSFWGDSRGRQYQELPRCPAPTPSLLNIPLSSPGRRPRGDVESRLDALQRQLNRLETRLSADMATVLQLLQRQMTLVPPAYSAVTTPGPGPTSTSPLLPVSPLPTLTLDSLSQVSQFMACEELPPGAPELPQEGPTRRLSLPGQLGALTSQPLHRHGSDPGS

By IC50 is commonly meant the concentration needed to halve the response being measured. `CNC(=O)CC[C@@H](C(C)C)N1CC2(CCN(c3ncnnc3Oc3ccc(F)cc3-c3cncnc3C3CC3)C2)C1` (single isomer, unassigned) [Compound 45, (*S)-4-(6-(6-(2-(4-cyclopropylpyrimidin-5-yl)-4-fluorophenoxy)-1,2,4-triazin-5-yl)-2,6-diazaspiro[3.4]octan-2-yl)-N,5-dimethylhexanamide]: the “Mouse LM Clint” value in data set [1] turned out to be 110 µL/min/mg. For the same compound, the IC50 was more than 15000 nM in the data set on KO-52 cells; 220 nM in the data set with MOLM14 cells; 12600 nM against hERG potassium channel; 210 nM in the data set on MEIS1 mRNA; 1250 nM in the data set with OCI-AML3 cells; 0.37 nM in data set [3] (setting [5]). In data set [2], the “Human LM Clint” value was 43 µL/min/mg.
`CCN(C(=O)c1cc(F)ccc1Oc1nncnc1N1CCC2(C1)CN([C@H](CCCO)C(C)C)C2)C(C)C` (single isomer, unassigned) [Compound 47, (*R)—N-ethyl-5-fluoro-2-((5-(2-(6-hydroxy-2-methylhexan-3-yl)-2,6-diazaspiro[3.4]octan-6-yl)-1,2,4-triazin-6-yl)oxy)-N-isopropylbenzamide]: the “Mouse LM Clint” value in data set [1] stood at 47 µL/min/mg. Further, the IC50 in the data set on KO-52 cells is 10800 nM; in the data set with MOLM14 cells, 220 nM; against hERG potassium channel, more than 30200 nM; with MEIS1 mRNA, 140 nM; with OCI-AML3 cells, 600 nM; in data set [3] (setting [5]), 0.31 nM. Moreover, the “Human LM Clint” value in data set [2] is 38 µL/min/mg.
With `CCN(C(=O)c1cc(F)ccc1Oc1nnccc1N1CCC2(C1)CN([C@H](CCCN(C)CCOC)C(C)C)C2)C(C)C` (single isomer, unassigned) [Compound 83], the values for the microsomal CLint at 1 μM in [1] and in [2] were more than 1000 µL/min/mg and 539 µL/min/mg, respectively. The IC50 in the data set with KO-52 cells (Homo sapiens, […]) stood at 6240 nM; in the data set with MOLM14 cells (Homo sapiens, MOLM-14, […]) it was 170 nM; against hERG potassium channel, 6000 nM; in the data set with MEIS1 mRNA (Homo sapiens, MOLM-14, 48 h) it was 92 nM; in the data set with OCI-AML3 cells (Homo sapiens, OCI-AML-3, […]), 420 nM.
As usually defined, the half-life is the time in which the quantity being followed falls by half. Read a low half-life as fast loss. A word on the bioavailability: it is the share of a dose that reaches the circulation, judged against a reference dose that is usually intravenous. As to `CC(C)[C@@H](CCCN(C)C)N1CC2(CCN(c3ncnnc3Oc3ccc(F)cc3C(=O)N(C(C)C)C(C)C)C2)C1` (single isomer, unassigned) [Compound 102, (*R)-2-((5(2-(6-(dimethylamino)-2-methylhexan-3-yl)-2,6-diazaspiro[3.4]octan-6-yl)-1,2,4-triazin-6-yl)oxy)-5-fluoro-N,N-diisopropylbenzamide fumarate], the IC50 was more than 15000 nM in the data set on KO-52 cells (Homo sapiens, […]); 16 nM in the data set on MOLM14 cells (Homo sapiens, MOLM-14, […]); 33 nM with MEIS1 mRNA (Homo sapiens, MOLM-14, 48 h); 110 nM with OCI-AML3 cells (Homo sapiens, OCI-AML-3, […]); 0.11 nM in data set [3] (setting [6]). In [4] (single IV 0.5 or 1.0 mg/kg), this compound gave a half-life of 11 h. In data set [4] (single PO 5 mg/kg), this compound had a bioavailability of 9.7%.
`CCN(C(=O)c1cc(F)ccc1Oc1nncnc1N1CCC2(C1)CN([C@H](CCO)C(C)C)C2)C(C)C` (single isomer, unassigned) [Compound 214, (*R)—N-ethyl-5-fluoro-2-((5-(2-(1-hydroxy-4-methylpentan-3-yl)-2,6-diazaspiro[3.4]octan-6-yl)-1,2,4-triazin-6-yl)oxy)-N-isopropylbenzamide]: in [1], the “Mouse LM Clint” value was 80 µL/min/mg. Moreover, the IC50 in the data set with KO-52 cells is more than 15000 nM; with MOLM14 cells, 120 nM; in the data set with MEIS1 mRNA, 140 nM; in the data set with OCI-AML3 cells, 380 nM; in data set [3] (setting [5]), 0.49 nM. Moreover, the “Human LM Clint” value in data set [2] was found to be 44 µL/min/mg.
With `CCN(C(=O)c1cc(F)ccc1Oc1nncnc1N1CCC2(C1)CN([C@H](CCCNC(C)=O)C(C)C)C2)C(C)C` [Compound 6, (R)-2-((5(2-(6-acetamido-2-methylhexan-3-yl)-2,6-diazaspiro[3.4]octan-6-yl)-1,2,4-triazin-6-yl)oxy)-N-ethyl-5-fluoro-N-isopropylbenzamide formate], the microsomal CLint at 1 μM in [1] was 28 µL/min/mg; in data set [2] it was 35 µL/min/mg. Besides, the IC50 with KO-52 cells (Homo sapiens, […]) is more than 15000 nM; with MOLM14 cells (Homo sapiens, MOLM-14, […]), 480 nM; in the data set on MEIS1 mRNA (Homo sapiens, MOLM-14, 48 h), 360 nM; in the data set on OCI-AML3 cells (Homo sapiens, OCI-AML-3, […]), 1860 nM; in data set [3] (setting [6]) it was 0.61 nM.
Regarding `CCN(C(=O)c1cc(F)ccc1Oc1nncnc1N1CCC2(C1)CN([C@H](CCCN(C)C(COC)COC)C(C)C)C2)C(C)C` [Compound 161, (R)-2-((5-(2-(6-((1,3-dimethoxypropan-2-yl)(methyl)amino)-2-methylhexan-3-yl)-2,6-diazaspiro[3.4]octan-6-yl)-1,2,4-triazin-6-yl)oxy)-N-ethyl-5-fluoro-N-isopropylbenzamide fumarate], the figures for the microsomal CLint at 1 μM in data set [1] and in data set [2] were 55 µL/min/mg and 70 µL/min/mg, respectively. Also, the IC50 with KO-52 cells (Homo sapiens, […]) was more than 15000 nM; in the data set on MOLM14 cells (Homo sapiens, MOLM-14, […]) it was 16 nM; in the data set on MEIS1 mRNA (Homo sapiens, MOLM-14, 48 h), 41 nM; with OCI-AML3 cells (Homo sapiens, OCI-AML-3, […]), 55 nM; in [3] (setting [6]) it was 0.23 nM.
